pIC50: −log10 of the molar value.
Target: T1, (H^+ +K^+)-ATPase (Canis lupus familiaris, UniProt P50996)
T1 construct: from tissue; host or cells: gastric glandular mucosa of mongrel dogs (microsomes from the 15-30% sucrose interface, lyophilized)
Assay: Inhibition of (H^+ +K^+)-ATPase from Canine Gastric Mucosa
Assay type: biochemical, canine (mongrel dogs)
Conditions: for pIC50: canine gastric mucosa microsomes, 30 min preincubation at 37°, pH 6.0, K^+-stimulated minus basal activity
Experimental: The antisecretory activity of the compounds of this invention illustrated in the Examples was tested by the following method.
Inhibition of ([…] +K^+)-ATPase from Canine Gastric Mucosa
Mongrel dogs weighing 15 to 25 kilograms were fasted for twenty-four hours, with water provided ad libitum. The animals were anesthetized with pentobarbital and the stomachs were removed. Subsequent tissue manipulations and subcellular fractionations were performed at 0° to 4° C. After the stomachs were cut open and rinsed with tap water, the antral and cardiac regions were removed and the remaining tissue was rinsed three times in saline. The glandular mucosa was removed mechanically, chopped finely in a medium containing 10 mM Tris hydrochloride (pH 7.4) and 250 mM sucrose, and homogenized. The homogenate was centrifuged at 20,000×g for twenty minutes and the pellet discarded. The supernatant was then centrifuged at 150,000xg for ninety minutes and the supernatant discarded. The pellet was resuspended in the Tris-HCl/sucrose medium by homogenization. Part (2 ml) of the resultant microsomal suspension was layered onto a step gradient consisting of 9 ml of 15% sucrose above 12 ml of 30% sucrose, each sucrose solution being buffered with 10 mM Tris hydrochloride (pH 7.4) containing 0.01% sodium azide. The microsomes retained at the 15-30% sucrose interface, after centrifugation at 250,000×g for sixty minutes, were used as the source of (H^+ +K^+)-ATPase. Microsomal preparations were lyophilized, a process that assured potassium ion permiability, and stored at -10° until used.
The (H^+ +K^+)-ATPase activity for each test compound was determined, in duplicate, by measuring the release of inorganic phosphate, which was assayed according to the method of J. ChandraRajan and L. Klein., Anal. Biochem., 72. 407-412 (1976). […] At least fifteen minutes later, the optical absorbance at 870 nm (which was proportional to inorganic phosphate concentration up to 100 nmoles per tube, as determined by a standard curve) was obtained. […]

T1 sequence (P50996 whole entry): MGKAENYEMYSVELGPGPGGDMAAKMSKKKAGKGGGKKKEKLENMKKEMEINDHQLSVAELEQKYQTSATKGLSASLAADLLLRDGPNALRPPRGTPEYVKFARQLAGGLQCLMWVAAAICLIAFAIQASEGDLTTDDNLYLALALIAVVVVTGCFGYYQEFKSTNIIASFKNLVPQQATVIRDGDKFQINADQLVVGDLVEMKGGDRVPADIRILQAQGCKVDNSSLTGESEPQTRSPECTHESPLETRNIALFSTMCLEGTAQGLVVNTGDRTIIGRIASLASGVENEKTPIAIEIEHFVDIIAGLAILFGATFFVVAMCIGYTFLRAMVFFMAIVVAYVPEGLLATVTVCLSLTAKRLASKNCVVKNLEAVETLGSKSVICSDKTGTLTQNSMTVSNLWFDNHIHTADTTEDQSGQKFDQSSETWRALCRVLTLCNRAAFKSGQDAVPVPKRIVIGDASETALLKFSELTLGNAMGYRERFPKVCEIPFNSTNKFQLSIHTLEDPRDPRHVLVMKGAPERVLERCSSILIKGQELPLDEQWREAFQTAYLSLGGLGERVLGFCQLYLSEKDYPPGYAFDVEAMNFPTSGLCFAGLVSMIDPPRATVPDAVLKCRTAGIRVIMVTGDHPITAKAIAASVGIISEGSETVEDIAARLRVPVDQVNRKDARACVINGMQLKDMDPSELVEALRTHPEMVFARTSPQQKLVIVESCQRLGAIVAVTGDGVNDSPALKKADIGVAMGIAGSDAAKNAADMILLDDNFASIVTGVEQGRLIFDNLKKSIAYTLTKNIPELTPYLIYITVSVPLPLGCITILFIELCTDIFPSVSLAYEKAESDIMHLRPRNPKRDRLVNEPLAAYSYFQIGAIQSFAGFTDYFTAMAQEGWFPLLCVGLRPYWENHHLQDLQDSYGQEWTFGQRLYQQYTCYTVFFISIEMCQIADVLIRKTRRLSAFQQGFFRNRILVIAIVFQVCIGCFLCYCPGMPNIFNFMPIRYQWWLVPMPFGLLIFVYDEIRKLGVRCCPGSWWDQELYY
T1 sequence (P33704 whole entry partner): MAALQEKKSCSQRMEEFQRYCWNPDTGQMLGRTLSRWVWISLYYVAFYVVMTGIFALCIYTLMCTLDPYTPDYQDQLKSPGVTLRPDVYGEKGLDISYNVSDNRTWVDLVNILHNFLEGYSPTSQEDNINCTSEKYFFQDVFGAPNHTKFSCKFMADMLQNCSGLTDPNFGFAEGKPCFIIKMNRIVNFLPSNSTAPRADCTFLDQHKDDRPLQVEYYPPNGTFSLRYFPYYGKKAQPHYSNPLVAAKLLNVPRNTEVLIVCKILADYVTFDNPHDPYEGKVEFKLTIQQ

SMILES | inhibition of (H^+ +K^+)-ATPase activity (in words) (as shown in Table I) | pIC50
[O-][S+](Cc1cn2ccccc2n1)c1nc2ccccc2[nH]1 (stereo not drawn) [Example 4, 2-[(imidazo[1,2-a]pyridin-2-ylmethyl)sulfinyl]-1H-benzimidazole] | not inhibiting (H^+ +K^+)-ATPase activity | < 4.00
[O-][S+](Cc1cnc2ccccn12)c1nc2ccccc2[nH]1 (stereo not drawn) [Example 2, 2-[(imidazo[1,2-a]pyridin-3-ylmethyl)sulfinyl]-1H-benzimidazole 1/4 hydrate] |  | 5.41

From patent US4721718A, “2-[(imidazo[1,2-a]pyridin-3-ylmethyl)sulfinyl]-1H-benzimidazoles useful in the treatment and prevention of ulcers” (G. D. Searle & Co., priority 1986, dated 1988)
